Assay [1] in a line: HEp-2 cell cytotoxicity, dose response, cytotoxicity control for RSV inhibitor project, HTS (AID 2410). Format: functional. The conditions noted are these: human respiratory syncytial virus.
For assay [2], the target named is T1, Polyadenylate-binding protein 1 (Homo sapiens, UniProt P11940). The assay is described as follows: PABP1 MLLE–PAM2 interaction inhibitors, dose response, miRNA deadenylation inhibitor project, biochemical, fluorescence polarization, Cy5-PAM2 peptide, secondary (AID 602260). Type of assay: functional. The conditions noted are these: read-out: IC50_Mean.
In assay [3] the target is T1, Polyadenylate-binding protein 1. As to the kind of experiment: PABP1 MLLE–PAM2 binding inhibitor potency, dose response, biochemical, fluorescence polarization, FITC-PAM2 peptide (AID 602259). Format: functional. The conditions noted are these: read-out: IC50_Mean.
The next assay addresses Tumor necrosis factor (Homo sapiens, UniProt P01375). The assay is described as follows: TNFa-triggered NF-kB activation inhibitors, SAR follow-up, cell-based, revised (AID 2337). Type of assay: functional.
Assay [4] deals with T2, Interleukin-8 (Homo sapiens, UniProt P10145).
T2 sequence (P10145 whole entry): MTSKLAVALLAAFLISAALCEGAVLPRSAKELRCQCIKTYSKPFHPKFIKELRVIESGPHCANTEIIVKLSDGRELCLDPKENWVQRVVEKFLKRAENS
The assay is described as follows: SAR analysis of Tumor necrosis factor alpha (TNF-alpha) induced IL-8 secretion in MCF-7/NOD1 cells - Set 2. [Related pubchem assays (depositor defined):AID1575, AID2250, AID2260]. Format: functional, cell-based.

For assay [5], the target named is T2, Interleukin-8. The assay is described as follows: SAR analysis of GM-Tri-DAP induced IL-8 secretion in MCF-7/NOD1 cells - Set 2. [Related pubchem assays (depositor defined):AID1575, AID1578, AID2333]. Format: functional, cell-based.
For assay [6], the target named is Potassium voltage-gated channel subfamily KQT member 2 (Rattus norvegicus, UniProt O88943). The assay is described as follows: retigabine-insensitive KCNQ2 potentiators, concentration-response, dose response, cell-based, retigabine-insensitive compounds (AID 2654). Type of assay: functional.
Assay [7] deals with Ras and Rab interactor 1/Tyrosine-protein kinase ABL1 (Homo sapiens, UniProt P00519+Q13671). Type of assay: functional.
In the next assay the target is ORF 73 (Human herpesvirus 8, UniProt O40947). The assay is described as follows: inhibitors of C-LANA binding to LBS DNA, dose response, biochemical, fluorescence polarization, cherry-picked samples (AID 504725).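 Also: fluorescence polarization of a labeled DNA duplex reporting LANA DNA binding; potency is for inhibitors that block LANA binding to the DNA.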 Further details: species or system Human gammaherpesvirus 8. In general terms: Fluorescence polarisation rises when a labelled molecule tumbles more slowly, as on binding a larger partner.

Assay [8] deals with T3, Carboxy-terminal domain RNA polymerase II polypeptide A small phosphatase 1 (Homo sapiens, UniProt Q9GZU7).
T3 sequence (Q9GZU7 whole entry): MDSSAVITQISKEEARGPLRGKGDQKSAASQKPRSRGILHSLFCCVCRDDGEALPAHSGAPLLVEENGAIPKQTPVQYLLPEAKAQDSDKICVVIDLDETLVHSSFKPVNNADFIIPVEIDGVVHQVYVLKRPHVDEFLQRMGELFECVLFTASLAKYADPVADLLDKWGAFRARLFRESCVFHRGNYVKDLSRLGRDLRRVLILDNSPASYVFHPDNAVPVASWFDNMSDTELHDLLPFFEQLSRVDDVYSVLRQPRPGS
As to the kind of experiment: inhibitors of CTDSP1, concentration-response testing, biochemical assay, absorbance-based, actives from ultra-high-throughput screening (AID 540297). Format: functional.

A short description of assay [9]: A Cell Based Secondary Assay To Explore Cytotoxicity of Compounds that Sensitize Mycobacterium Tuberculosis to Beta-Lactam Antibiotics. Type of assay: functional.
In assay [10] the target is DNA dC->dU-editing enzyme APOBEC-3A (Homo sapiens, UniProt P31941). As to the kind of experiment: Dose Response confirmation of small molecule APOBEC3A DNA Deaminase Inhibitors via a fluorescence-based single-stranded DNA deaminase assay. [Related pubchem assays (depositor defined):AID493011, AID493024]. Type of assay: functional.
Assay [11] addresses Eukaryotic translation initiation factor 4H (Homo sapiens, UniProt Q15056). As to the kind of experiment: human eIF4H binding inhibitors, primary screen, translation initiation inhibitor project, biochemical, uHTS, fluorescence polarization (AID 2012).
The target of assay [12] is DNA dC->dU-editing enzyme APOBEC-3G (Homo sapiens, UniProt Q9HC16). Format: functional.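 Also: Dose-response counterscreen measuring inhibition of APOBEC3G DNA deaminase activity, run while confirming APOBEC3A inhibitors.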
In assay [13] the target is T1, Polyadenylate-binding protein 1. The assay is described as follows: PABP poly(A) RNA binding inhibitors, primary screen, biochemical, fluorescence polarization, uHTS (AID 2014).
Assay [14] has as its target T4, Bcl-2-related protein A1 (Mus musculus, UniProt Q07440).
T4 sequence (Q07440 whole entry): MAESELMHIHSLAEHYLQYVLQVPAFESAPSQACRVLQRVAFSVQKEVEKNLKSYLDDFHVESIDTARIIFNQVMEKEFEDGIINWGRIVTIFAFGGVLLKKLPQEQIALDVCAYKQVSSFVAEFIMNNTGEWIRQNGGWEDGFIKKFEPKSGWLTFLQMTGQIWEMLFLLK
As to the kind of experiment: Bfl-1 inhibitors blocking BH3 peptide binding, confirmation, biochemical, TR-FRET, mouse Bfl-1 (AID 621).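 Also: TR-FRET binding of GST-Bfl-1 to FITC-labelled Bid peptide via terbium antibody.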 Background: TR-FRET usually uses a lanthanide donor and a delayed reading to cut background.

The target of assay [15] is Glyceraldehyde-3-phosphate dehydrogenase (Homo sapiens, UniProt P04406).
The target in assay [16] is T4, Bcl-2-related protein A1. As to the kind of experiment: Bfl-1 binding inhibitors, SAR follow-up, biochemical, fluorescence polarization (AID 1070).
A short description of assay [17]: cytotoxicity in HPDE-C7 cells, cell-based, fluorescence, HTS (AID 430). Format: functional. The conditions noted are these: Homo sapiens.
Assay [18] deals with G-protein coupled receptor 55 (Homo sapiens, UniProt Q9Y2T6). The assay is described as follows: GPR55 agonists via beta-arrestin recruitment, primary screen, imaging, U2OS cells, beta-arrestin-GFP redistribution (AID 1961). Format: functional. Background: Recruitment of arrestin is a read-out of receptor activation apart from second messengers.
The nature of assay [19]: cytotoxicity in KRAS-transformed pancreatic duct cells, primary screen, cell-based, fluorescence, HTS (AID 431).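 Also: cell line used: HPDE-C7K.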 Format: functional. The conditions noted are these: Homo sapiens.

“And” between values parts separate entries of the source, which are not always exact repeats. Equal values may be shown once. The source made the active and inactive calls. Some results are limits rather than exact numbers.

T1 sequence (P11940 whole entry): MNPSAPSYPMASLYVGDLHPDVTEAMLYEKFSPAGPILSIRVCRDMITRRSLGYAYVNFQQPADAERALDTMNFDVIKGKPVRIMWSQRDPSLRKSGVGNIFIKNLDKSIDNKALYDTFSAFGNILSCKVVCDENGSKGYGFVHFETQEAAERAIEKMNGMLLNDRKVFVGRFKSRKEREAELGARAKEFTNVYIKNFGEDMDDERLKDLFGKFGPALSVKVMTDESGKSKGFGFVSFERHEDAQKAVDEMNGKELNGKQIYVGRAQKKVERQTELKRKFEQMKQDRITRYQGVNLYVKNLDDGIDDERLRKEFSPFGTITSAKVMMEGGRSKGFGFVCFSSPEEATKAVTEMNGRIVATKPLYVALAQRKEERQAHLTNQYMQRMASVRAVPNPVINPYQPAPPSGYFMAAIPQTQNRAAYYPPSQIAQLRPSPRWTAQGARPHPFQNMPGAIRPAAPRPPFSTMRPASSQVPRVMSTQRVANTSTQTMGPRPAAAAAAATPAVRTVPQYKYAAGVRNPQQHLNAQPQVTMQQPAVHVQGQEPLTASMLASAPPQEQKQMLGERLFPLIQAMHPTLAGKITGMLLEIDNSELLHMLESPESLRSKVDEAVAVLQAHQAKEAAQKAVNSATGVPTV
Tumor necrosis factor, sequence (P01375 whole entry): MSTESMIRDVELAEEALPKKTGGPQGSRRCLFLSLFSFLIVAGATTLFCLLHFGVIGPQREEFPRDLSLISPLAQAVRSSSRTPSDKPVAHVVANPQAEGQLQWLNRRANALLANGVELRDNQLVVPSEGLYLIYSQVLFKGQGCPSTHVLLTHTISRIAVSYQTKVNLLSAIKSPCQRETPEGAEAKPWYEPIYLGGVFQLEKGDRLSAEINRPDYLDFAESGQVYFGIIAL
Potassium voltage-gated channel subfamily KQT member 2, sequence (O88943 whole entry): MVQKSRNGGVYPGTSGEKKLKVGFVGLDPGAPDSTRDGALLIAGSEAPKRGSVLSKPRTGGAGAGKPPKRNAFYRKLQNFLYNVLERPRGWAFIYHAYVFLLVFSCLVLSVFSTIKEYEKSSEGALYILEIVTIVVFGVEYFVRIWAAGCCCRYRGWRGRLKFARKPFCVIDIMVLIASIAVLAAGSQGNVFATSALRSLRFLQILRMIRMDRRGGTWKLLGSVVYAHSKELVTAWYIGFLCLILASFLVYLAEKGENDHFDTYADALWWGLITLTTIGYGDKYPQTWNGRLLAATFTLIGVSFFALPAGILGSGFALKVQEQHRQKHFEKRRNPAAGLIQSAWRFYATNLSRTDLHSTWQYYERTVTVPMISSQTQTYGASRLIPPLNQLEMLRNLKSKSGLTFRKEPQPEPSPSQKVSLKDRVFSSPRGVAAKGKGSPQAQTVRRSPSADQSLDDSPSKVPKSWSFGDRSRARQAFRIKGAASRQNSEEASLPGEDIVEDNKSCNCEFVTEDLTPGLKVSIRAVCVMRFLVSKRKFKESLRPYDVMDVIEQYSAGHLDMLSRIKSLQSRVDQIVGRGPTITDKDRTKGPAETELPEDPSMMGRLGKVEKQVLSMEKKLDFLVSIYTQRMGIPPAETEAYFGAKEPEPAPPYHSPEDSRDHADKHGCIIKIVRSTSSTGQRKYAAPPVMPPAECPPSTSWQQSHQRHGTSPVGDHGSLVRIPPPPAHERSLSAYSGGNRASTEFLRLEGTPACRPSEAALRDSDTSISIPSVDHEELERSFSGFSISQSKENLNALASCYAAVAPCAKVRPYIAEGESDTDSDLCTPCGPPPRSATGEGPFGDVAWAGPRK
Ras and Rab interactor 1/Tyrosine-protein kinase ABL1, sequence (P00519 whole entry): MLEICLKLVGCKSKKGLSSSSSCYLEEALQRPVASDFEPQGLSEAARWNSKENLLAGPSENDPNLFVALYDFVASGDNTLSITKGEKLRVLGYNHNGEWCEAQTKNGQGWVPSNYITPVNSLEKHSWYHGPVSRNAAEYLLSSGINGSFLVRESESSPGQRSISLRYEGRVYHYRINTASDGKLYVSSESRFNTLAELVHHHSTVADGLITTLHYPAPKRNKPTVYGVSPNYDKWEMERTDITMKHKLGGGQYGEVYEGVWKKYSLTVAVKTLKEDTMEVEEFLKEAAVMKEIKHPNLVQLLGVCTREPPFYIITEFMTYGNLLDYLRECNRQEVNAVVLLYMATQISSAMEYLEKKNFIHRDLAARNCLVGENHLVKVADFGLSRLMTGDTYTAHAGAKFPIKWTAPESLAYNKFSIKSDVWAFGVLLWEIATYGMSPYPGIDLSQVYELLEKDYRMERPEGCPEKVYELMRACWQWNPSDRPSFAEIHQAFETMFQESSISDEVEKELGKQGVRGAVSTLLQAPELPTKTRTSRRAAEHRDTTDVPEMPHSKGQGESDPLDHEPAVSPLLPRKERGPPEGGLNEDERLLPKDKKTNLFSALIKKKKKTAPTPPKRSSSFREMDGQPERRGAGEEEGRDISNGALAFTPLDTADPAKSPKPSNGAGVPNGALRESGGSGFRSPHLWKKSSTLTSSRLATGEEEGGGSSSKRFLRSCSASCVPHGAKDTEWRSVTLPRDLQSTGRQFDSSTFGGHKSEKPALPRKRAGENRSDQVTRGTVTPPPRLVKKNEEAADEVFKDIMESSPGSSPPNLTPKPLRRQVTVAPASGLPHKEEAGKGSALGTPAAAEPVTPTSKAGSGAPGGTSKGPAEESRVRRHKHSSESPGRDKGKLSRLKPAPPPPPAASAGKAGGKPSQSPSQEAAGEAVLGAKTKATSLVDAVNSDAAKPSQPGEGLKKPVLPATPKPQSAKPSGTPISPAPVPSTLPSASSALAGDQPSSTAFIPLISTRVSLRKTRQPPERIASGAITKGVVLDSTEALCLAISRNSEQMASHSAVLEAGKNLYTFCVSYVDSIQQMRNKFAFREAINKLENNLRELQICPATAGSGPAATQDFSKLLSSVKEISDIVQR
Ras and Rab interactor 1/Tyrosine-protein kinase ABL1, sequence (Q13671 whole entry): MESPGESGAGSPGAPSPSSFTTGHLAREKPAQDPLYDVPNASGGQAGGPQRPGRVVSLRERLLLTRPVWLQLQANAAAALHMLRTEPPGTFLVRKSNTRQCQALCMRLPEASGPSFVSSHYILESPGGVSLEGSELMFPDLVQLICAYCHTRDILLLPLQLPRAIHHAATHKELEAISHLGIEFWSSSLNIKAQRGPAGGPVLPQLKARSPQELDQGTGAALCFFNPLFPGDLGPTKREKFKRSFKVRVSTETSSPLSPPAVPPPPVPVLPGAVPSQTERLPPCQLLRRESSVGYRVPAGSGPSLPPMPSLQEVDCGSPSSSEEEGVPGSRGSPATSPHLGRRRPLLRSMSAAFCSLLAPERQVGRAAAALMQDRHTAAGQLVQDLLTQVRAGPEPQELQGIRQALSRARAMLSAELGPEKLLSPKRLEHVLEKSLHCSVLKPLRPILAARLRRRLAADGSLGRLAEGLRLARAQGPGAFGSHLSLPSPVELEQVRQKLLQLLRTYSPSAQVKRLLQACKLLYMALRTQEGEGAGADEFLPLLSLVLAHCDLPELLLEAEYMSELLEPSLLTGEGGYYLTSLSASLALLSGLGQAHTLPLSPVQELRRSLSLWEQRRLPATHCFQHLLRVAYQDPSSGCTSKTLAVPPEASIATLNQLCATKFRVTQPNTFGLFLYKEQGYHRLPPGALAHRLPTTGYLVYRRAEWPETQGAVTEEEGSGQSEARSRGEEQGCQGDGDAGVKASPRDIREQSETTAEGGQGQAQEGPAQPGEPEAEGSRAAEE
DNA dC->dU-editing enzyme APOBEC-3G, sequence (Q9HC16 whole entry): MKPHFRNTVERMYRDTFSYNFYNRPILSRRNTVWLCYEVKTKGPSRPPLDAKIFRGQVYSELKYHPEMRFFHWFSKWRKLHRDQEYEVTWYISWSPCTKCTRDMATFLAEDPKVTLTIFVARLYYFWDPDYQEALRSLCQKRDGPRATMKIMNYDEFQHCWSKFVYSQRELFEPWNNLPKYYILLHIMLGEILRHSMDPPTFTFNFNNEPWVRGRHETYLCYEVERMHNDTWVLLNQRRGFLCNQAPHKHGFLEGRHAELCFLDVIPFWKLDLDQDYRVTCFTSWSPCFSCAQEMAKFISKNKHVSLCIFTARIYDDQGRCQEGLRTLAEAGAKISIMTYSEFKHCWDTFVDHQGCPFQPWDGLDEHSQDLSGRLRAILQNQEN
Glyceraldehyde-3-phosphate dehydrogenase, sequence (P04406 whole entry): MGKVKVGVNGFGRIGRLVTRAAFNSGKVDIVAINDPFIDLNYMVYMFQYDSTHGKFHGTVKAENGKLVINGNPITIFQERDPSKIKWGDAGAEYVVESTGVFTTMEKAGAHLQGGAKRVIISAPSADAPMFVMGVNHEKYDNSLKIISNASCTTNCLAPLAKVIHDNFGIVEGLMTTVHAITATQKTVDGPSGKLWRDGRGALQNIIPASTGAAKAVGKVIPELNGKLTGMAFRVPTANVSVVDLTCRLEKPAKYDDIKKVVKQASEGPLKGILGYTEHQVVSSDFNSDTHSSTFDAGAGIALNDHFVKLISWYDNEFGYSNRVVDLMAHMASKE
G-protein coupled receptor 55, sequence (Q9Y2T6 whole entry): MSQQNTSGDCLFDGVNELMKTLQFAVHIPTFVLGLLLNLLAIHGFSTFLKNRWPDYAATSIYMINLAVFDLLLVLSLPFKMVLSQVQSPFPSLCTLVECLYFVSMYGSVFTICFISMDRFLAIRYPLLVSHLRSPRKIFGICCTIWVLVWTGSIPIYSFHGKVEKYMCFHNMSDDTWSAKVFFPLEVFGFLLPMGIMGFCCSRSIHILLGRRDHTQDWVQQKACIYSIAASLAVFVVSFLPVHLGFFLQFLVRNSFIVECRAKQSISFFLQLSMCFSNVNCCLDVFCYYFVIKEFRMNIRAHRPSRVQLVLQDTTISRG

The CC50 is the concentration that lowers cell viability or growth by half. Regarding `Cc1ccc(C(=O)O)cc1NC(=S)NC(=O)c1ccc(-c2ccc(Cl)cc2)o1`, in assay [1], the CC50 is 23.2 µM (active). In addition, the results for the IC50 (in “cells”; in [2]; in assay [3]) were 22.8 µM (active), > 66 µM (inactive) and > 66 µM (inactive), respectively.

On to `Nc1nc2ccccc2n1Cc1ccc(Cl)cc1`, for which the IC50 is 8.92 µM (active) and > 20 µM (inactive) on Tumor necrosis factor; 19.8 µM (active) on Interleukin-8 [4]; 12.1 µM (active) at Interleukin-8 [5].

What is called EC50 is the concentration giving half of the maximal effect. Consider `CCC(C)c1ccc(NC(=S)Nc2cccnc2)cc1` (centres undefined), for which, in [6], the EC50 was 12.6 µM (active).

As a reminder, the AC50 is the midpoint of the concentration-response curve, whichever way the signal moves. Turning to `COc1cc(O)c(C(C)=O)c(CC(=O)O)c1`, the IC50 in assay [7] is 15.6 µM (inactive); in [8], 3.5 µM (active). Also, the AC50 at ORF 73 is 46.3 µM (active).

With `COc1ccc(OC)c(Nc2nc(-c3cccs3)cs2)c1`, the cytotoxic concentration (CC50) was > 40 µM (active) in assay [9] and 26.5 µM (active) in assay [1].

On to `Cc1nc2ccc(NC(=O)C3COc4ccccc4O3)cc2s1` (centres undefined), for which the IC50 was 6.32 µM (active) in [10], > 100 µM (inactive) in assay [11], 6.02 µM (active) in assay [12] and 11.1 µM (active) in assay [13].

Consider `Cc1ccc(NC(=O)Nc2cccnc2)cc1F`, for which the EC50 in assay [6] was 9.14 µM (active).

`Cc1ccc(Cl)cc1N1CCN(C2=C(Cl)C(=O)N(c3ccc(Cl)c(Cl)c3)C2=O)CC1`: the IC50 (at Bcl-2-related protein A1 [14]; in [15]; at Bcl-2-related protein A1 [16]) was > 100 µM (not active) throughout.

For the compound `COc1ccc(C2(O)CC3CCC(C2)N3c2cc(C)nc(-c3ccccc3)n2)cc1` (centres undefined), the half-maximal effective concentration (EC50) is > 20 µM (not active) in [17], 7.35 µM (active) in assay [18] and > 20 µM (not active) in [19].

The values above are taken from ChEMBL document CHEMBL1201862, “PubChem BioAssay data set” (2004).
